Key:
Ebola virus = Ebola virus infection model; Reina et al. 2007; cited from earlier work
[1] = target: T1, dendritic cell receptor DC-SIGN (Homo sapiens, UniProt Q9NNX6); details: Reina et al. 2007; cited from earlier work
T1 sequence (Q9NNX6 1-404): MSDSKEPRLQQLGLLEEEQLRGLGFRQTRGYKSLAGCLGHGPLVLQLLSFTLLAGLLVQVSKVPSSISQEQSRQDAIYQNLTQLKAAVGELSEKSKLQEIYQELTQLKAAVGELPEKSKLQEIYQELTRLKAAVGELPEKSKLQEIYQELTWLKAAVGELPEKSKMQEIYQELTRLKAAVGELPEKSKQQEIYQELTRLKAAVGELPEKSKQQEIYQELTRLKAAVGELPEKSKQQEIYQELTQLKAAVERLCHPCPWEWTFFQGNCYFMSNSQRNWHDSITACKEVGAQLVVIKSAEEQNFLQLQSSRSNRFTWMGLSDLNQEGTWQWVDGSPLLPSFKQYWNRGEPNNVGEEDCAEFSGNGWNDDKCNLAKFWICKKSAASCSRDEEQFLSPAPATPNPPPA

HIV-1 BaL [2] = assay: trans-infection assay, B-THP-1/DC-SIGN cells incubated with inhibitor and washed before adding the virus; details: 5 mM, cells washed with buffer before adding virus (BaL); Figure 3
HIV-1 BaL [3] = assay: trans-infection of CD4+ T lymphocytes by B-THP-1/DC-SIGN cells exposed to virus in continued presence of inhibitor, p24 ELISA

For `COC(=O)[C@H]1C[C@H](OCCN=[N+]=[N-])[C@@H](O[C@H]2O[C@H](CO)[C@@H](O)[C@H](O)[C@@H]2O)C[C@@H]1C(=O)OC` [compound 1], the anti-infective action (Ebola virus) is given as “moderate anti-infective action” and the “binding to DC-SIGN” value [1] is given as “binds”.

With `COC(=O)[C@H]1C[C@H](OC[C@H]2O[C@H](OCCN=[N+]=[N-])[C@@H](O)[C@@H](O)[C@@H]2O)[C@@H](O[C@H]2O[C@H](CO)[C@@H](O)[C@H](O)[C@@H]2O)C[C@@H]1C(=O)OC` [compound 2b, α(1,2)α(1,6)pseudomannotriose] the “antiinfective activity in the trans-infection assay” value (HIV-1 BaL [2]) was “no antiinfective activity” and the “concentration needed to reach a similar inhibition level, compared with 12” value (HIV-1 BaL [3]; HIV-1 BaL, Figure 2) was “much higher concentration”.

For `OC[C@H]1OC(O)[C@@H](O)[C@@H](O)[C@@H]1O` (some centres unmarked) [Man4], the activity at 100 µM (HIV-1 BaL [3]; Human immunodeficiency virus 1, BAL, CD4+ T, read-out: infection level) was ≥ 30%.
